According to US20150031572A1, “MEANS AND METHODS FOR ASSESSING NEURONAL TOXICITY” (priority 2012, published 2015):
Marks after values point to notes of the source that are not given here.

Assay: Plasma metabolite profiling (GC-MS, LC-MS, SPE-LC-MS) of rats dosed once daily over 28 days; treatment ratios versus untreated control
Type: in vivo, rat
Protocol: A group of each 5 male and female rats was dosed once daily with the indicated compounds (see Table 10, below for compounds, applied doses and administration details) over 28 days.
Each dose group in the studies consisted of five rats per sex. Additional groups of each 5 male and female animals served as controls. Before starting the treatment period, animals, which were 62-64 days old when supplied, were acclimatized to the housing and environmental conditions for 7 days. All animals of the animal population were kept under the same constant temperature (20-24±3° C.) and the same constant humidity (30-70%). The animals of the animal population were fed ad libitum. The food to be used was essentially free of chemical or microbial contaminants. Drinking water was also offered ad libitum. Accordingly, the water was free of chemical and microbial contaminants as laid down in the European Drinking Water Directive 98/83/EG. The illumination period was 12 hours light followed by 12 hours darkness (12 hours light, from 6:00 to 18:00, and 12 hours darkness, from 18:00 to 6:00). […] The test substances (compounds) in the Tables 1 to 9 below were dosed and administered as described in the Table 10 above.
In the morning of day 7, 14, and 28, blood was taken from the retro-orbital venous plexus from fasted anaesthetized animals. From each animal, 1 ml of blood was collected with EDTA as anticoagulant. The samples were centrifuged for generation of plasma. All plasma samples were covered with a N2 atmosphere and then stored at −80° C. until analysis.
For mass spectrometry-based metabolite profiling analyses plasma samples were extracted and a polar and a non-polar (lipid) fraction was obtained. For GC-MS analysis, the non-polar fraction was treated with methanol under acidic conditions to yield the fatty acid methyl esters. Both fractions were further derivatised with O-methyl-hydroxyamine hydrochloride and pyridine to convert Oxogroups to O-methyloximes and subsequently with a silylating agent before analysis. In LC-MS analysis, both fractions were reconstituted in appropriate solvent mixtures. HPLC was performed by gradient elution on reversed phase separation columns. Mass spectrometric detection which allows target and high sensitivity MRM (Multiple Reaction Monitoring) profiling in parallel to a full screen analysis was applied as described in WO2003073464.
Steroids and their metabolites were measured by online SPE-LC-MS (Solid phase extraction-LC-MS).
Following comprehensive analytical validation steps, the data for each analyte were normalized against data from pool samples. These samples were run in parallel through the whole process to account for process variability. The significance of treatment group values specific for sex, treatment duration and metabolite was determined by comparing means of the treated groups to the means of the respective untreated control groups using WELCH-test and quantified with treatment ratios versus control and p-values.
The identification of the most important biomarkers per toxicity pattern was done by a ranking of the analytes in the tables below. Therefore the metabolic changes in reference treatments of a given pattern (shown in the table) were compared with changes of the same metabolite in other unrelated treatments. […] The maximum absolute value of the respective TVALUE was taken to indicate the most important metabolite for the pattern.

[1] = plasma, female rats, day 7, high dose, Table 9a
[2] = plasma, female rats, day 7, high dose, Table 9b
[3] = plasma, female rats, day 14, high dose, Table 9a
[4] = plasma, female rats, day 14, high dose, Table 9b
[5] = plasma, female rats, day 28, high dose, Table 9a
[6] = plasma, female rats, day 28, high dose, Table 9b
[7] = plasma, male rats, day 7, high dose, Table 9c
[8] = plasma, male rats, day 7, high dose, Table 9d
[9] = plasma, male rats, day 14, high dose, Table 9c
[10] = plasma, male rats, day 14, high dose, Table 9d
[11] = plasma, male rats, day 28, high dose, Table 9c
[12] = plasma, male rats, day 28, high dose, Table 9d
[13] = plasma, female rats, day 28, low dose, Table 1c
[14] = plasma, female rats, day 28, low dose, Table 1d
[15] = plasma, male rats, day 28, low dose, Table 1b

O=C1CCCC(=O)C1C(=O)c1ccc(C(F)(F)F)cc1[N+](=O)[O-] [NTBC (HPPD-Inhibitor), NTBC]
4-Hydroxyphenylpyruvate, ratio versus control [1]: 245.75* | Glycine, ratio versus control [1]: 1.2* | Phosphatidylcholine (C18:0,C18:2), ratio versus control [1]: 1.03* | Serine, ratio versus control [1]: 1.38* | TAG (C16:0,C18:2), ratio versus control [1]: 1.62* | TAG (C18:1,C18:2), ratio versus control [1]: 2.45* | TAG (C18:2,C18:2), ratio versus control [1]: 1.91* | Threonine, ratio versus control [1]: 1.43* | Tyrosine, ratio versus control [1]: 37.75* | gamma-Linolenic acid (C18:cis[6,9,12]3), ratio versus control [1]: 1.34 | 5-Oxoproline, ratio versus control [2]: 0.5* | Glutamine, ratio versus control [2]: 0.54* | 4-Hydroxyphenylpyruvate, ratio versus control [3]: 293.51* | Glycine, ratio versus control [3]: 1.33* | Phosphatidylcholine (C18:0,C18:2), ratio versus control [3]: 1 | Serine, ratio versus control [3]: 1.48* | TAG (C16:0,C18:2), ratio versus control [3]: 1.37* | TAG (C18:1,C18:2), ratio versus control [3]: 2.22* | TAG (C18:2,C18:2), ratio versus control [3]: 1.92* | Threonine, ratio versus control [3]: 1.82* | Tyrosine, ratio versus control [3]: 50.64* | gamma-Linolenic acid (C18:cis[6,9,12]3), ratio versus control [3]: 1.61* | 5-Oxoproline, ratio versus control [4]: 0.55* | Glutamine, ratio versus control [4]: 0.46* | 4-Hydroxyphenylpyruvate, ratio versus control [5]: 276.92* | Glycine, ratio versus control [5]: 1.48* | Phosphatidylcholine (C18:0,C18:2), ratio versus control [5]: 1.05* | Serine, ratio versus control [5]: 1.43* | TAG (C16:0,C18:2), ratio versus control [5]: 1.44* | TAG (C18:1,C18:2), ratio versus control [5]: 1.51* | TAG (C18:2,C18:2), ratio versus control [5]: 1.31* | Threonine, ratio versus control [5]: 1.52* | Tyrosine, ratio versus control [5]: 38.31* | gamma-Linolenic acid (C18:cis[6,9,12]3), ratio versus control [5]: 1.55* | 5-Oxoproline, ratio versus control [6]: 0.69* | Glutamine, ratio versus control [6]: 0.48* | 4-Hydroxyphenylpyruvate, ratio versus control [7]: 364.14* | Lysine, ratio versus control [7]: 1.12 | Threonine, ratio versus control [7]: 1.36* | Tyrosine, ratio versus control [7]: 56.14* | 5-Oxoproline, ratio versus control [8]: 0.6* | Citrulline, ratio versus control [8]: 0.84* | Glutamine, ratio versus control [8]: 0.55* | Phenylalanine, ratio versus control [8]: 0.78* | 4-Hydroxyphenylpyruvate, ratio versus control [9]: 435.77* | Lysine, ratio versus control [9]: 1.4* | Threonine, ratio versus control [9]: 1.51* | Tyrosine, ratio versus control [9]: 58.08* | 5-Oxoproline, ratio versus control [10]: 0.61* | Citrulline, ratio versus control [10]: 0.88* | Glutamine, ratio versus control [10]: 0.57* | Phenylalanine, ratio versus control [10]: 0.77* | 4-Hydroxyphenylpyruvate, ratio versus control [11]: 366.39* | Lysine, ratio versus control [11]: 1.46* | Threonine, ratio versus control [11]: 1.54* | Tyrosine, ratio versus control [11]: 52.56* | 5-Oxoproline, ratio versus control [12]: 0.6* | Citrulline, ratio versus control [12]: 0.83* | Glutamine, ratio versus control [12]: 0.58* | Phenylalanine, ratio versus control [12]: 1.02

CCCC(C)C1(CC)C(=O)NC(=O)NC1=O (stereo not shown) [Pentobarbital sodium i.p., Pentobarbital sodium]
3-Indoxylsulfate, ratio versus control (rat, in vivo): 1.44 * | Cysteine, ratio versus control (rat, in vivo): 0.64 * | Ketoleucine, ratio versus control (rat, in vivo): 1.09 | Malate, ratio versus control (rat, in vivo): 0.83 * | Pantothenic acid, ratio versus control (rat, in vivo): 1.14^ | Phosphate (inorganic and organic phosphates), ratio versus control (rat, in vivo): 1.21 * | Phosphatidylcholine (C16:0, C20:4), ratio versus control (rat, in vivo): 1 * | Phosphatidylcholine (C16:0, C22_6), ratio versus control (rat, in vivo): 0.94 * | alpha-Tocopherol, ratio versus control (rat, in vivo): 1.23 *

O=C1NC(=O)C(c2ccccc2)(c2ccccc2)N1 [Phenytoin]
Coenzyme Q9, ratio versus control [13]: 1.22 * | Valine, ratio versus control [13]: 1.36 * | Cysteine, ratio versus control [14]: 0.86 * | Glutamate, ratio versus control [14]: 0.81 * | Pyruvate, ratio versus control [14]: 0.65 * | myo-Inositol, ratio versus control [14]: 0.69 * | 3-Indoxylsulfate, ratio versus control (plasma, male rats, day 28, low dose, Table 1a): 1.78^ | Cysteine, ratio versus control [15]: 0.73 * | Ketoleucine, ratio versus control [15]: 0.76 * | Malate, ratio versus control [15]: 0.84 * | Phosphatidylcholine (C16:0, C20:4), ratio versus control [15]: 0.99 * | Phosphatidylcholine (C16:0, C22_6), ratio versus control [15]: 0.95 * | Isoleucine, ratio versus control (rat, in vivo): 1.23 * | Pantothenic acid, ratio versus control (rat, in vivo): 1.25 * | Phosphate (inorganic and organic phosphates), ratio versus control (rat, in vivo): 1.25 * | alpha-Tocopherol, ratio versus control (rat, in vivo): 1.16 *
